# According to article PMC6761391, “Blockade of Mas Receptor or Mas-Related G-Protein Coupled Receptor Type D Reduces Portal Pressure in Cirrhotic but Not in Non-cirrhotic Portal Hypertensive Rats” (Frontiers in Physiology, 2019):
# Structures can show the parent of a compound that is named as a salt. Non-standard residues stand in square brackets, D forms with d. Residues, ends and D or L forms follow the SMILES beside them.
# Key:
# [1] = In vivo angiotensin (1-7) peptide metabolism assay (plasma concentration by radioimmunoassay); settings: BDL rats, 10 μg/kg i.v. bolus; for time of peak plasma concentration post-injection: blood at 30 s, 1, 2, 5 min, Ang-(1-7) radioimmunoassay (cross-reactivity for A779 and D-Pro not determined); for time of peak plasma concentration post-injection / time for circulating peptide levels to return to baseline levels after injection: 4 rats per group, plasma; for fate in the rat circulation following a bolus injection: circulating concentrations by radioimmunoassay; for time for circulating peptide levels to return to baseline levels after injection: Ang-(1-7) radioimmunoassay
# Procedure: To determine the longevity of the angiotensin peptides in the rat circulation, a separate set of experiments was carried out using BDL rats. Four weeks after BDL, the rats were anesthetized with ketamine/xylazine mixture and the femoral artery and vein were cannulated using PE-10 catheters as described previously ([Grace et al., 2013]). After 30 min of stabilization, 1 ml of blood was drawn from the femoral artery as the baseline sample into an Eppendorf tube containing protease inhibitor mix (20 μl/ml of blood: 50 mmol/L Na2 EDTA, 0.2 mol/L N-ethylmaleimide, 21,000 U/ml aprotonin, 5 mg/ml leupeptin, and 1 mg/ml pepstatin; prepared fresh daily and kept on ice) to prevent breakdown of angiotensin peptides. Injection of either MasR or MrgD blockers, A779 or D-Pro (10 μg/kg), respectively, was performed thereafter via the femoral vein catheter. Blood samples were collected at 30 s, 1, 2, and 5 min after injection. A separate group of rats was injected with Ang-(1-7) peptide (10 μg/kg) and blood was collected as before. After completion of the experiment, the rats were euthanized by exsanguination. Blood samples were centrifuged at 4,000 rpm for 10 min to harvest plasma. Radioimmunoassay for Ang-(1-7) (Prosearch International, Australia, Pty Ltd) was performed to determine plasma concentration of peptide blockers and Ang-(1-7) at different time points. Twelve BDL rats were used for the experiment, with four rats in each of the three treatment groups. The extent of cross-reactivity for D-Ala (A779) and D-Pro was not determined for the Ang-(1-7) radioimmunoassay.
# MrgD = settings: HEK293 cells transfected with MrgD; ref Tetzner et al., 2016; cited from earlier work
# Excerpt: There is some evidence that ATR2 also mediates Ang-(1-7) action. This was based on observations that the vasodilatory effects of Ang-(1-7) in vivo ([Heitsch et al., 2001]) and ex vivo and in vitro ([Tesanovic et al., 2010]; [Grace et al., 2013]) were inhibited by AT2R blockade with PD123319.
# [2] = system: cirrhotic carbon tetrachloride (CCl4) injected rats; test: Portal pressure (PP) measurement in cirrhotic CCl4 rats after intravenous bolus injection; format: in vivo, Sprague Dawley rats
# Procedure: (§1) Six-week-old male Sprague Dawley rats (200–250 g BW) were used to induce cirrhosis and PHT by injections of carbon tetrachloride (CCl4) as described previously ([Fallowfield et al., 2014]). Rats were housed in a controlled environment as described above. CCl4 was administered twice weekly via intraperitoneal injections, at a dose of 1 ml/kg, mixed with 1:1 ratio with olive oil. After 10 weeks of CCl4 administration, the rats were used for receptor blocker infusion experiments.
# (§2) Four weeks after BDL, 10 weeks after CCl4 and 2 weeks after PPVL, the rats were anesthetized with ketamine/xylazine mixture (75 and 10 mg/kg BW, respectively, Therapon Pty Ltd). A median laparotomy was performed, and a small PE 10 polyethylene catheter (Microtube Extrusions, NSW, Australia) was inserted into a small ileocecal vein and advanced to the portal vein to measure PP. A skin incision was made in the left inner thigh to identify the left femoral artery and cannulated with a PE 10 catheter to measure the mean arterial pressure (MAP). Portal vein and femoral artery catheters were connected to a highly sensitive pressure transducer (Zultek Engineering, Melbourne, VIC, Australia). The left femoral vein was cannulated with a similar PE 10 catheter for bolus injections of the receptor blockers. After insertion of the catheters, the rats were allowed to stabilize hemodynamically for 30 min prior to interventions.
# The baseline values of PP and MAP were recorded prior to injection of the drugs. For a single receptor blocker experiments, either MasR blocker A779 (10 μg/kg) ([Grace et al., 2013]), MrgD blocker D-Pro (10 μg/kg), or AT2R blocker PD123319 (1 mg/kg) ([Yang et al., 2011]) was administered intravenously via the femoral vein catheter as a single bolus injection. The dose was calculated for each individual rat according to body weight. The bolus injection was prepared by dissolving a stock solution of […] (A779 or D-Pro) or 10 mg/ml (PD123319) in 0.9% NaCl to make a minimum injectable volume of 0.25 ml. This is to avoid variations in pressure due to adding volume to the circulation. After the bolus injection of the drug, the catheter was slowly flushed with 0.25 ml 20 IU/ml heparinized saline. Measurement of PP and MAP was continued for additional 30 min after injection (Figure 2A). Each treatment group of BDL, CCl4, and PPVL consisted of six to seven rats. For each model, a separate control group of animals (n = 6 per group) received saline injections for comparison with the treatment effects.
# A separate set of experiments were carried out in the two cirrhotic PHT rat models (BDL and CCl4) to investigate whether the detrimental effects of AT1R blocker losartan on systemic arterial pressure can be counteracted by a second injection of either MasR or MrgD blockers; A779 or D-Pro, respectively. In this study, a bolus injection of losartan was administered and 20 min later, a bolus injection of either A779 or D-Pro was given. The pressure measurement was carried out for additional 20 min after the second injection (Figure 2B). A total of 18 BDL and 18 CCl4 rats were used (n = 6 per treatment group).
# [3] = system: non-cirrhotic partial portal vein ligated (PPVL) rats; test: Portal pressure (PP) measurement in non-cirrhotic PPVL rats after intravenous bolus injection; format: in vivo, Sprague Dawley rats; settings: non-cirrhotic PPVL rat model; single i.v. bolus (A779, D-Pro 10 μg/kg; PD123319 1 mg/kg)
# Procedure: (§3) Eight-week-old male Sprague Dawley rats (300–350 g BW) were used to induce non-cirrhotic portal hypertension by partial portal vein ligation (PPVL) surgery as described previously ([Kahn et al., 1988]). Briefly, under gaseous anesthesia, a median laparotomy was performed and the portal vein was identified. A 19G needle was placed alongside the length of the portal vein, and a 4/0 silk suture was tied around the portal vein and the needle. The needle was then removed creating a calibrated stenosis in the portal vein, partially obstructing the portal flow. The abdominal wall was closed in two layers using sterile 4/0 silk suture. Two weeks after PPVL, the rats were used for receptor blocker infusion experiments.
# (§4) Four weeks after BDL, 10 weeks after CCl4 and 2 weeks after PPVL, the rats were anesthetized with ketamine/xylazine mixture (75 and 10 mg/kg BW, respectively, Therapon Pty Ltd). A median laparotomy was performed, and a small PE 10 polyethylene catheter (Microtube Extrusions, NSW, Australia) was inserted into a small ileocecal vein and advanced to the portal vein to measure PP. […]
# (§5) The baseline values of PP and MAP were recorded prior to injection of the drugs. […] The dose was calculated for each individual rat according to body weight. […]
# [4] = system: non-cirrhotic partial portal vein ligated (PPVL) rats; test: Mean arterial pressure (MAP) measurement in PPVL rats; format: in vivo, Sprague Dawley rats; settings: single i.v. bolus (A779, D-Pro 10 μg/kg; PD123319 1 mg/kg)
# Procedure: as §3, §4, §5
# [5] = system: cirrhotic bile duct ligated (BDL) rats; test: Portal pressure (PP) measurement in cirrhotic bile duct ligated (BDL) rats after intravenous bolus injection; format: in vivo, Sprague Dawley rats
# Procedure: (§6) Eight-week-old male Sprague Dawley rats (300–350 g BW) underwent bile duct ligation surgery (BDL) to induce cirrhosis and PHT. Rats were housed in a controlled environment with 12:12-h light to dark cycle with controlled temperature (22–24°C) and fed standard rat chow ad libitum (Norco, Lismore NSW, Australia) and water. After 1 week of acclimatization, the rats were anesthetized with isoflurane gaseous anesthesia (Therapon Pty Ltd., Victoria, Australia). The rats were also given a single dose of carprofen (5 mg/kg, Rimadyl, Australia) subcutaneously prior to surgery to limit post-operative discomfort. BDL surgery was performed as previously described ([Herath et al., 2007]). Briefly, a midline incision was made in the abdomen to enter the peritoneal cavity. The common bile duct was located and double ligated with 4/0 silk suture. The bile duct was then transacted between two ligatures. Intraoperatively, animals were kept warm on a heat pad and received 0.9% NaCl 10 ml/kg. The abdominal wall was closed in two layers using sterile 4/0 silk suture. Four weeks after BDL surgery, the rats were used for receptor blocker infusion experiments as described below.
# as §2
# (§7) The baseline values of PP and MAP were recorded prior to injection of the drugs. For a single receptor blocker experiments, either MasR blocker A779 (10 μg/kg) ([Grace et al., 2013]), MrgD blocker D-Pro (10 μg/kg), or AT2R blocker PD123319 (1 mg/kg) ([Yang et al., 2011]) was administered intravenously via the femoral vein catheter as a single bolus injection. The dose was calculated for each individual rat according to body weight. The bolus injection was prepared by dissolving a stock solution of […] (A779 or D-Pro) or 10 mg/ml (PD123319) in 0.9% NaCl to make a minimum injectable volume of 0.25 ml. This is to avoid variations in pressure due to adding volume to the circulation. […]
# [6] = system: cirrhotic bile duct ligated (BDL) rats; test: Mean arterial pressure (MAP) measurement in BDL rats; format: in vivo, Sprague Dawley rats; settings: BDL model
# Procedure: as §6
# as §2, with “The left femoral vein was cannulated with a similar PE 10 catheter for bolus injections of the receptor blockers. After insertion of the catheters, the rats were allowed to stabilize hemodynamically for 30 min prior to interventions.” left out
# as §5
# [7] = system: cirrhotic carbon tetrachloride (CCl4) injected rats; test: Mean arterial pressure (MAP) measurement in CCl4 rats; format: in vivo, Sprague Dawley rats; settings: CCl4 model
# Procedure: as §1, §2, §7
# MasR = settings: ref Santos et al., 2003; cited from earlier work
# Excerpt: Although it is well known that Ang (1-7) produces its effects by binding to MasR and MrgD ([Santos et al., 2003]; [Tetzner et al., 2016]), early cell culture studies have reported some actions of Ang-(1-7) were mediated via the subtypes of AT1R ([Muthalif et al., 1998]; [[…] et al., 2001]). Some studies also proposed that MasR may interact with AT1R by receptor hetero-dimerization or alterations in post-receptor signaling ([Castro et al., 2005]; [Kostenis et al., 2005]; [Tesanovic et al., 2010]; [Castelo-Branco et al., 2017]; [O'Neill et al., 2017]), which in turn leads to the inhibition o ...
# [8] = CCl4 model, single i.v. bolus (A779, D-Pro 10 μg/kg; PD123319 1 mg/kg)
# [9] = CCl4 model, losartan 1 mg/kg i.v. bolus
# [10] = BDL model, losartan 1 mg/kg i.v. bolus
# [11] = losartan 1 mg/kg i.v. bolus, 12 to 14 rats
smiles,measurement,setting,value
"CC[C@H](C)[C@H](NC(=O)[C@H](Cc1ccc(O)cc1)NC(=O)[C@@H](NC(=O)[C@H](CCCN=C(N)N)NC(=O)[C@@H](N)CC(=O)O)C(C)C)C(=O)N[C@@H](Cc1c[nH]cn1)C(=O)N1CCC[C@@H]1C(=O)O [D-Pro, D-Pro^7-Ang-(1-7)]",time of peak plasma concentration post-injection,[1],2 min
same,fate in the rat circulation following a bolus injection,[1],rapidly degraded in the rat circulation
same,time for circulating peptide levels to return to baseline levels after injection,[1],≤ 5 min
Cc1cc(Cn2cnc3c2C[C@@H](C(=O)O)N(C(=O)C(c2ccccc2)c2ccccc2)C3)ccc1N(C)C [PD123319],block of Ang-(1-7)-stimulated cAMP release,MrgD,completed blocked
same,maximum reduction in portal pressure,[2]; [8],4.8%
same,time for which the reduction in PP persisted after injection,[2]; [8],up to 20 min
same,change in portal pressure (PP) from baseline,"[2]; CCl4 rats, single i.v. bolus (A779, D-Pro 10 μg/kg; PD123319 1 mg/kg), measured at 5 min post-injection, six to seven rats per group",significant reduction in PP
same,effect on portal pressure (PP),[3],failed to reduce PP
same,effect on mean arterial pressure (MAP),[4],no effect on MAP
same,portal pressure reduction,"[5]; BDL rats, PD123319 1 mg/kg i.v. bolus",not statistically significant
same,effect on mean arterial pressure (MAP),[6]; single i.v. bolus PD123319 1 mg/kg,no effect on MAP
same,effect on mean arterial pressure (MAP),"[7]; single i.v. bolus (A779, D-Pro 10 μg/kg; PD123319 1 mg/kg)",no effect on MAP
"CC[C@H](C)[C@H](NC(=O)[C@H](Cc1ccc(O)cc1)NC(=O)[C@@H](NC(=O)[C@H](CCCNC(=N)N)NC(=O)[C@@H](N)CC(=O)O)C(C)C)C(=O)N[C@@H](Cc1c[nH]cn1)C(=O)N1CCC[C@H]1C(=O)O [Ang-(1-7), Angiotensin (1-7)]",time of peak plasma concentration post-injection,[1],2 min
same,time for circulating peptide levels to return to baseline levels after injection,[1],≤ 5 min
"CCCCc1nc(Cl)c(CO)n1Cc1ccc(-c2ccccc2-c2nn[nH]n2)cc1 [losartan, losartan hydrochloride]",duration of portal pressure lowering effect post-intervention,[2]; [9],up to 30 min
same,start of PP reduction post-injection,[2]; [9],5 min
same,change in PP from baseline pressure,"[2]; CCl4 model, losartan 1 mg/kg i.v. bolus, 12 to 14 rats",significant (p < 0.01) reduction in PP
same,ligand for MasR,MasR,not a ligand for MasR
same,duration of portal pressure lowering effect post-intervention,[5]; [10],up to 30 min
same,start of PP reduction post-injection,[5]; [10],5 min
same,change in PP from baseline pressure,"[5]; BDL model, losartan 1 mg/kg i.v. bolus, 12 to 14 rats",significant (p < 0.01) reduction in PP
same,start of MAP reduction post-injection,[6]; losartan 1 mg/kg i.v. bolus,5 min
same,change in MAP from baseline,[6]; [11],significantly (p < 0.01) reduced MAP
same,start of MAP reduction post-injection,[7]; losartan 1 mg/kg i.v. bolus,10 min
same,change in MAP from baseline,[7]; [11],significantly (p < 0.01) reduced MAP
CC[C@H](C)[C@H](NC(=O)[C@H](Cc1ccc(O)cc1)NC(=O)[C@@H](NC(=O)[C@H](CCCNC(=N)N)NC(=O)[C@@H](N)CC(=O)O)C(C)C)C(=O)N[C@@H](Cc1cnc[nH]1)C(=O)N[C@H](C)C(=O)O [A779] (H-DRVYIH[dA]-OH),time of peak plasma concentration post-injection,[1],2 min
same,fate in the rat circulation following a bolus injection,[1],rapidly degraded in the rat circulation
same,time for circulating peptide levels to return to baseline levels after injection,[1],≤ 5 min
